Results published in patent publication US8877437B1, “Methods of using dyes in association with nucleic acid staining or detection” (Biotium, Inc., priority 2009, dated 2014).
Like-named read-outs stand apart in the source and are kept apart here.

Assays:
[1] = tested on: cells; conditions: cited from earlier work
[2] = cited from earlier work
[3] = tested on: aquatic life; conditions: in vivo; cited from earlier work
[4] = Hydrolytic and thermal stability for pre-cast gel preparation and storage; assay type: physicochemical
Excerpt: In a gel electrophoresis application, an agarose gel may be prepared by heating (via microwave, for example) a suspension of agarose powder in an electrophoresis buffer, such as lithium borate buffer, thereby producing a hot agarose solution, pouring the solution onto a slab, and cooling the solution, thereby producing a useful gel. […] For example, in a pre-cast gel staining application, SYBR Green I dye is generally combined with an agarose solution after the initial agarose suspension has been heated and the resulting agarose solution has been cooled as much as possible. Combining the SYBR Green I dye with the agarose solution in this manner may be a delicate task, as if the temperature of the agarose solution is too high, the dye my decompose, and if the temperature of the agarose solution is too low, the agarose solution may gel up such that the dye and the solution are inadequately combined or mixed. Further by way of example, in a pre-cast gel staining application, a pre-cast gel prepared with SYBR Green I is generally used within 24 hours, as it may lose utility thereafter. […] This dye may offer sufficient to exceptional stability, as well as low or minimal background fluorescence relative to EB and low or minimal toxicity relative to EB, as further described below.

[5] = Stability of dye in gel electrophoresis buffer (room temperature, microwave heating); assay type: physicochemical
[6] = test not named; cited from earlier work
[7] = tested on: nucleic acid; conditions: cited from earlier work
[8] = pre-cast gel containing the dye

CCCN(CCCN(C)C)c1cc(/C=C2/Sc3ccccc3N2C)c2ccccc2[n+]1-c1ccccc1 [SYBR Green I]
cytotoxicity [1]: cytotoxic at relatively high concentrations | time within which pre-cast gel is used before losing utility [2, 8]: ≤ 24 h

CCCN1C=C/C(=C\c2sc3ccccc3[n+]2C)c2ccccc21 [SYBR Safe]
cytotoxicity [1]: cytotoxic at relatively high concentrations | safety to aquatic life [3]: safe to aquatic life

Nc1ccc2c(c1)c(-c1ccccc1)[n+](CCCCCC(=O)NCCCOCCOCCOCCCNC(=O)CCCCC[n+]1c(-c3ccccc3)c3cc(N)ccc3c3ccc(N)cc31)c1cc(N)ccc21 [Dye No. 35]
hydrolytic and thermal stability for preparation of a pre-cast gel [4]: sufficient hydrolytic and thermal stability | storage of pre-cast gel without loss of performance [4, 8]: at least 3 months | time heated in a microwave oven without decomposition ([5]; in TBE buffer): at least 10 minutes | time stable in electrophoresis buffer ([5]; lithium borate buffer, room temperature): at least 6 months

CC[n+]1c(-c2ccccc2)c2cc(N)ccc2c2ccc(N)cc21 [EB, ethidium bromide]
mutagenicity [6]: powerful mutagen | hydrolytic and thermal stability for preparation of a pre-cast gel ([2]; reference dyes, general statement): sufficiently stable, both hydrolytically and thermally

CN(C)c1ccc2cc3ccc(N(C)C)cc3[n+](CCCCCC(=O)NCCCOCCOCCOCCCNC(=O)CCCCC[n+]3c4cc(N(C)C)ccc4cc4ccc(N(C)C)cc43)c2c1.[I-].[I-] [GelGreen]
cytotoxicity [1]: noncytotoxic | safety to aquatic life [3]: safe to aquatic life

Nc1ccc2c(c1)c(-c1ccccc1)[n+](CCCCCC(=O)NCCCOCCOCCOCCCNC(=O)CCCCC[n+]1c(-c3ccccc3)c3cc(N)ccc3c3ccc(N)cc31)c1cc(N)ccc21.[I-].[I-] [GelRed]
cytotoxicity [1]: noncytotoxic | safety to aquatic life [3]: safe to aquatic life

CN(C)c1ccc2cc3ccc(N(C)C)cc3nc2c1 [AO, Acridine orange]
affinity for nucleic acid [7]: very low
